# Assay results taken from patent US6407125B1, “Pharmacological agent and method of treatment” (Novactyl, Inc., priority 1995, dated 2002).
# What was measured:
# [1] = tested on: WI-38 cells; experiment: Growth of WI-38 cells (total cell protein, cell number); type: cell-based; settings: for Monolayer Protein: WI-38, fusaric acid 0.5 mM
# Experimental: (§1) Cells were plated at 1.5×10^5 cells/60-mm dish; 48 hours later, the medium was removed, and new media with or without 3 mM picolinic acid was added. Total cell protein was determined at the indicated times; each point is the average of triplicate measurements from 2 cultures.
# (§2) In initial experiments to examine the effects of fusaric acid on cell growth and viability, WI-38 and LoVo cells were incubated for 24 to 72 hours in medium with or without various doses of fusaric acid (0.1-1 mM). The growth of both WI-38 and LoVo cells was inhibited by 500 μM fusaric acid in a time and dose dependent manner, as shown below in Table 2.
# [2] = tested on: WI-38 cells; experiment: Viability of WI-38 cells (trypan blue exclusion); type: cell-based; settings: 500 μM fusaric acid
# Experimental: To examine WI-38 cell viability in greater detail, the effects of fusaric acid were studied in logarithmically growing and contact inhibited confluent cells (Tables 2 and 3). In logarithmically growing WI-38 cells approximately 76% of the cells were viable after 30 hours of treatment with fusaric acid. When the cells were treated for 78 hours, only 26% of the cell population survived the pronounced cytotoxic actions of fusaric acid.
# [3] = tested on: LoVo cells; experiment: Growth of LoVo cells (total cell protein, cell number, DNA synthesis); type: cell-based, human; settings: for Monolayer Protein: fusaric acid 0.5 mM
# Experimental: as §1, §2
# After 30 hours of treatment with 500 μM fusaric acid, there was a prominent decrease in cell number. DNA synthesis was completely (100%) inhibited by 24 hours. When treated with 500 μM fusaric acid, the majority of the LoVo cells acquired a rounded morphology by 48 hours.
# However, after 100 hours, an increase in cell number was noted after 25 additional hours.
# [4] = tested on: LoVo cells; experiment: Viability of LoVo cells (trypan blue exclusion); type: cell-based, human; settings: 500 μM fusaric acid
# Experimental: As in the case of WI-38, LoVo cell viability after fusaric acid treatment was investigated in logarithmically growing and confluent cells, as shown in Tables 2 and 3. In logarithmically growing LoVo cells, approximately 38% of the attached cells were viable after 30 hours of treatment with fusaric acid. When the cells were treated for 78 hours, only 4.5% of the cell population survived the pronounced cytotoxic actions of fusaric acid. […] Thus, LoVo cells are much more sensitive to the cytotoxic actions of fusaric acid in both growing and confluent population of cells in comparison to normal WI-38 cells.
# [5] = tested on: KB cells; experiment: Growth of KB cells; type: cell-based, human; settings: 48 hours in 500 μM
# [6] = tested on: KB cells; experiment: Viability of KB cells (trypan blue exclusion); type: cell-based, human; settings: 500 μM fusaric acid
# Experimental: To examine KB cell viability in greater detail, the effects of fusaric acid were studied in logarithmically growing and confluent cells. In logarithmically growing KB cells 70% of the cells were viable after 48 hours in 500 μtM fusaric acid. […] Thus, in contrast to LoVo cells, a significant proportion of the population of growing (70%) cells and virtually all (95%) of confluent KB cells resisted the pronounced cytotoxic action of fusaric acid (See Tables 3 and 4, above).
# [7] = tested on: human breast adenocarcinoma MDA-468 cell; experiment: Growth of MDA-468 cells (cell number, DNA synthesis); type: cell-based; settings: MDA-468, 500 μM fusaric acid
# Experimental: After 12-24 hours of treatment with 500 μM fusaric acid, there was no further increase in cell number. […] These floating cells were not viable. Within 30 hours of treatment there was a 65% decrease in cell number. […] After 96 hours, less than 10% of the original population remained attached to the dish and no change in cell number was noted after one additional week.
# [8] = tested on: MDA-468 cells; type: cell-based, human
# Experimental: As in the case of WI-38, MDA-468 cell viability after fusaric acid treatment was investigated in logarithmically growing and confluent cells. In logarithmically growing MDA-468 cells, less than 20% of the attached cells were viable after 30 hours of treatment with fusaric acid. When the cells were treated for 48 hours, only 0.1% of the cell population survived the pronounced cytotoxic actions of fusaric acid. […] Thus, MDA-468 cells are extremely sensitive to the cytotoxic actions of fusaric acid in both growing and confluent population of cells in comparison to normal WI-38 lines studied.
# [9] = tested on: Prostatic adenocarcinoma; experiment: Viability of other human carcinoma cell types; type: cell-based; settings: 48 hours of treatment
# Experimental: (§3) As in previous examples, the following human cell lines were inhibited by similar concentrations of fusaric acid: Prostatic adenocarcinoma, skin carcinoma, colon carcinoma, liver adenocarcinoma and lung adenocarcinoma. For all these cell types, cell viability decreased by approximately 60% after 48 hours of treatment with fusaric acid.
# [10] = tested on: colon carcinoma; experiment: Viability of other human carcinoma cell types; type: cell-based; settings: 48 hours of treatment
# Experimental: as §3
# [11] = tested on: liver adenocarcinoma; experiment: Viability of other human carcinoma cell types; type: cell-based; settings: 48 hours of treatment
# Experimental: as §3
# [12] = tested on: lung adenocarcinoma; experiment: Viability of other human carcinoma cell types; type: cell-based; settings: 48 hours of treatment
# Experimental: as §3
# [13] = tested on: skin carcinoma; experiment: Viability of other human carcinoma cell types; type: cell-based; settings: 48 hours of treatment
# Experimental: as §3
smiles,measurement,setting,value
CCCCc1ccc(C(=O)O)nc1 [fusaric acid],Monolayer Protein,[1]; 24 h,195 μg/dish
same,Monolayer Protein,[1]; 48 h,275 μg/dish
same,Monolayer Protein,[1]; 72 h,345 μg/dish
same,time to resumed growth after removal of fusaric acid,"[1]; WI-38, 30 hours in 500 μM",125 h
same,decrease in cell number after removal of fusaric acid,"[1]; WI-38, 30 hours in 500 μM, then 4 days in normal media",30%
same,cells surviving after removal of fusaric acid,"[1]; WI-38, remaining cells after 30 hours in 500 μM",> 95%
same,% Survival,"[2]; WI-38, confluent cells, 48 h",100%
same,% Survival,"[2]; WI-38, logarithmic growth, 78 h",26%
same,cytotoxicity in LoVo cells,"[3]; 1 mM fusaric acid, by 24 hours",extensive cytotoxicity
same,inhibition at 500 µM,"[3]; Homo sapiens, LoVo, 24 h, read-out: inhibition of DNA synthesis",100%
same,decrease in cell number,"[3]; LoVo, 500 μM fusaric acid, within 30 hours of treatment",60%
same,Monolayer Protein,"[3]; LoVo, 24 h",135 μg/dish
same,Monolayer Protein,"[3]; LoVo, 48 h",90 μg/dish
same,Monolayer Protein,"[3]; LoVo, 72 h",101 μg/dish
same,% Survival,"[4]; confluent cells, 48 h",40%
same,% Survival,"[4]; logarithmic growth, 78 h",4.5%
same,time to resumed growth after removal of fusaric acid,[5],27 h
same,viability at 500 µM,"[6]; Homo sapiens, logarithmically growing, 48 hours, read-out: viable cells",70%
same,% Survival,"[6]; confluent cells, 48 h",95%
same,inhibition at 500 µM,"[7]; Homo sapiens, by 24 hr",100%
same,decrease in cell number,[7]; within 30 hours,65%
same,cells surviving,"[8]; MDA-468, confluent, 500 μM fusaric acid, 48 hours",10%
same,viable attached cells,"[8]; MDA-468, logarithmically growing, fusaric acid, 30 hours",less than 20%
same,cell population surviving,"[8]; MDA-468, logarithmically growing, fusaric acid, 48 hours",0.1%
same,decrease in cell viability,[9],approximately 60%
same,decrease in cell viability,[10],approximately 60%
same,decrease in cell viability,[11],approximately 60%
same,decrease in cell viability,[12],approximately 60%
same,decrease in cell viability,[13],approximately 60%
